For orientation: pIC50 means the IC50 on a negative log10 scale, so that one unit is a factor of ten.

Results on one substance are retold here after patent publication US20060030537A1, “Ceramide kinase and uses thereof” (priority 2004, published 2006).

pIC50: −log10 of the molar value.

Holding throughout (type): cell-based
The test system of one data set is L929 fibroblasts. Briefly: AA release in L929 fibroblasts. How it is done:
FIGS. 3A-3B. FIG. 3A. The effects of ceramide-1-phosphate on TXB2 synthesis. A549 cells (1×10^5) were treated with D-e-C16 ceramide-1-phosphate (1 μM) solubilized in 2% dodecane/98% ethanol (final concentration in treatments was 0.002% dodecane/0.098% ethanol (EtOH)) for the indicated times. The results are presented as % control of TXB2 controlled for equivalent number of cells by MTT assay. Data are representative of 3 separate determinations on 2 separate occasions. FIG. 3B. The effects of ceramide-1-phosphate on AA release and PGE2 synthesis in L929 fibroblasts. L929 cells (5×10^4) were labeled overnight with 5 μCi/mL [^3H]-arachidonic acid (5 nM). Cells were washed and placed in DMEM supplemented with 2% fetal bovine serum for two hours. […]
Quantification of arachidonic acid (AA) release: A549 cells (5×10^4) were labeled overnight with 5 μCi/mL [^3H]-AA (5 nM) (NEN). […] Following treatment, media was transferred to 1.5 mL polypropylene tubes, centrifuged at 10,000×g, and ^3H-AA cpm determined by scintillation counting. Results were controlled for equivalent number of cells quantified by MTT assay as described (Chalfant, C. E., Rathman, K., Pinkerman, R. L., Wood, R. E., Obeid, L. M., Ogretmen, B., and Hannun, Y. A. (2002) J. Biol. Chem. 277, 12587-12595) and by verification of total AA labeling by scintillation counting. […]

The subject of the next data set is sphingosine kinase-1. Briefly: Immunoreactive levels of sphingosine kinase-1 after ceramide kinase RNAi. As to conditions: cells transfected with RNAi targeted to ceramide kinase.
Data set [1] deals with A549 cells. Briefly: Quantification of prostaglandin E2 synthesis in A549 cells (EIA). Conditions: compared with inhibition of AA release. How it is done:
(§1) Cell Culture: A549 lung adenocarcinoma cells (epithelial-derived) were grown in low glucose DMEM (Invitrogen) supplemented with L-glutamine, 10% (v/v) fetal bovine serum (Invitrogen), 200 U/ml of penicillin G sodium, and 200 μg/ml of streptomycin sulfate. Cells were maintained under 80% confluency and standard incubator conditions (humidified atmosphere, 95% air, 5% CO2, 370 C). For treatment, cells were incubated for 2 hours in low glucose DMEM (Invitrogen) supplemented with L-glutamine, 2% (v/v) fetal bovine serum (Invitrogen), 200 U/ml of penicillin G sodium, and 200 μg/ml of streptomycin sulfate prior to the addition of agonist.
Quantification of prostaglandin E2 and thromboxane B2 synthesis: For measurement of PGE2 and TXB2 levels, aliquots of media were taken at indicated time points and assayed according to manufacturer's instructions using the prostaglandin E2 and thromboxane B2 monoclonal EIA Kit from Cayman Chemical. Briefly, media containing PGE2 or TXB2 competes with PGE2 or TXB2 acetylcholinesterase conjugate for a limited amount of monoclonal antibody. The antibody-PGE2 or -TXB2 conjugate binds to a goat-anti-mouse antibody previously attached to the 96-well plate. The plate is washed to remove unbound reagents and then the substrate for acetylcholinesterase is provided. […] Results were controlled for equivalent number of cells quantified by MTT assay. […]

The subject of data set [2] is A549 cells. Briefly: Quantification of arachidonic acid (AA) release in A549 cells. How it is done:
as §1
Quantification of arachidonic acid (AA) release: A549 cells (5×10^4) were labeled overnight with 5 μCi/mL [^3H]-AA (5 nM) (NEN). Cells were washed and incubated in DMEM supplemented with 2% fetal bovine serum for 2 hours. Following treatment, media was transferred to 1.5 mL polypropylene tubes, centrifuged at 10,000×g, and ^3H-AA cpm determined by scintillation counting. Results were controlled for equivalent number of cells quantified by MTT assay as described (Chalfant, C. E., Rathman, K., Pinkerman, R. L., Wood, R. E., Obeid, L. M., Ogretmen, B., and Hannun, Y. A. (2002) J. Biol. Chem. 277, 12587-12595) and by verification of total AA labeling by scintillation counting. For the experiments in FIG. 4, purified SMase D was obtained from Dr. Alfred H. Merrill, Jr., and SMase C (purified from Bacillus cereus) was obtained commercially from Sigma.
RNAi design and transfections: Knock-downs of ceramide kinase were performed essentially as described using sequence specific siRNA reagents (http:www.mpibpc.gwdg.de/abteilungen/100/105/sirna.html) (Lassus, P., Opitz-Araya, X., and Lazebnik, Y. (2002) Science 297, 1352-1354) using human ceramide kinase RNAi starting 142 nucleotides from start codon ([…]dTd (SEQ ID NO: 3) and […]dTd (SEQ ID NO:4)). All sequences were evaluated against the database using the NIH blast program to test for specificity (Xeragon, A Qiagen Company). A549 cells (3×10^4) were transfected with the 21-nucleotide duplexes using OligofectAMINE (Invitrogen) as recommended by the manufacturer. Following the 4 hour transfection, cells were treated and assayed for AA release or PGE2 synthesis at 26 hours post-transfection.

Take “ceramide kinase RNAi: 21-nucleotide duplex, human ceramide kinase RNAi starting 142 nucleotides from start codon (SEQ ID NO: 3 and 4) (chain 1 UGCCUGCUCUGUGCCUGUATT; chain 2 UACAGGCACAGAGCAGGCATT; chemistry not given here)”: the “inhibition of AA release in response to IL-1β” value is on record as “over 60%” in the data set with L929 fibroblasts and 78% in the data set with A549 cells [2] (IL-1β 2.5 ng/mL for 4 hours, 26 hours post-transfection). Besides, the “immunoreactive levels of sphingosine kinase-1” value in the data set with sphingosine kinase-1 was “no decrease”. In addition, in the data set with A549 cells [1], the “inhibition of PGE2 synthesis in response to IL-1β and A23187” value is “to the same extent”. Further, the “inhibition of AA release in response to A23187” value in the data set with A549 cells [2] (A23187 1 μg/mL, 26 hours post-transfection) is recorded as 72%. Further, the “AA release in response to C-1-P treatment” value with A549 cells [2] (C-1-P 2.5 μM for 5 hours) is on record as “no effect”. In addition, in the data set on A549 cells [2] (IL-1β or A23187, read-out: IC50 of inhibition of agonist-induced AA release), the negative-log IC50 (pIC50) was about 7.52.
